Our source for the activation and inhibition values is patent US8822517B2, “Arylosulfonamides for the treatment of CNS diseases” (Adamed SP. Z O.O., priority 2010, dated 2014).

Experiment [1] deals with T1, adrenergic α2C receptor (Homo sapiens, UniProt P18825).
T1 sequence (P18825 1-462): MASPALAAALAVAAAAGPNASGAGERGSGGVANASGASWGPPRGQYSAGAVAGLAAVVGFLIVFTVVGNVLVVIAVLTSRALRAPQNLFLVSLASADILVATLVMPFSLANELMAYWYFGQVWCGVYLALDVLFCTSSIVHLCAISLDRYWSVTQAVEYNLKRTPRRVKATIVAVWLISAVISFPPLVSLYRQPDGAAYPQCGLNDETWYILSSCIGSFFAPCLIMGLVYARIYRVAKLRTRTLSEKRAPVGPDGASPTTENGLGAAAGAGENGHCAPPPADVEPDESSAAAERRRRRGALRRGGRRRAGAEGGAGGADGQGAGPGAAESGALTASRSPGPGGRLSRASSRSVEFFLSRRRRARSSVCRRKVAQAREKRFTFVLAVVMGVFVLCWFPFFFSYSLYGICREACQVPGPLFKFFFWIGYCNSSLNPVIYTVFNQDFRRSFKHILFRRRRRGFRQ
The experiment in a line: Cellular functional assay, adrenergic α2C receptor (agonism/antagonism). The class given is cell-based. The following applies: for activation at 1 µM: agonist effect, percent of control specific agonist response, compounds tested at 1×10^−6M, read-out: α2C −ag [%]; for inhibition at 1 µM: read-out: α2C −antag. [%]. How it is done: (§1) The compounds were tested at the concentration of 1×10^−6M.
(§2) In the Tables ag refers to agonism, and antag to antagonism).

For experiment [2], the target named is T2, adrenergic α1A receptor (Homo sapiens, UniProt P35348).
T2 sequence (P35348 1-466): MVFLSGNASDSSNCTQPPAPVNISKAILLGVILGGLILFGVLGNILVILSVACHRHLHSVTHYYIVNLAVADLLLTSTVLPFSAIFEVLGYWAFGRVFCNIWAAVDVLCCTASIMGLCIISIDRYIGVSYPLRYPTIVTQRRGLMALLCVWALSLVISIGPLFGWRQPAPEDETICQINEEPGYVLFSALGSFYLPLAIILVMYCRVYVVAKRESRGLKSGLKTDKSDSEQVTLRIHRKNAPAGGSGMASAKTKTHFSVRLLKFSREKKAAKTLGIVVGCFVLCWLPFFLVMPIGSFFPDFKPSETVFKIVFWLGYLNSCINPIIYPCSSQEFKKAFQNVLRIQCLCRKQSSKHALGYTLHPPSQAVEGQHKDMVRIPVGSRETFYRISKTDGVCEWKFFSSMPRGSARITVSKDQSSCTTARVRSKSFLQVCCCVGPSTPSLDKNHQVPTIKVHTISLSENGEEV
The experiment in a line: Cellular functional assay, adrenergic α1A receptor (agonism/antagonism). The following applies: for activation at 1 µM: agonist effect, percent of control specific agonist response, compounds tested at 1×10^−6M, read-out: α1A -ag [%]; for inhibition at 1 µM: read-out: α1A -antag. [%]. It counts as cell-based. In short, it runs like this:
(§3)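 Human receptors tested in cell-based functional format for both agonist and antagonist modes. Single compound concentration of 1×10^−6M.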

Experiment [3] has as its target dopaminergic D3 receptor (Homo sapiens, UniProt P35462). The experiment in a line: Cellular functional assay, dopaminergic D3 receptor (agonism/antagonism). It counts as cell-based. The following applies: for inhibition at 1 µM: CHO, read-out: D3-antag. [%]; for activation at 1 µM: agonist effect, percent of control specific agonist response (300 nM dopamine for control), 1×10^−6 M, D3 (h), CHO cells, read-out: D3-ag [%]. The method, then: as §1, §2

For experiment [4], the target named is serotoninergic 5-HT7 receptor (Homo sapiens, UniProt P34969). The experiment can be described thus: Cellular functional assay, serotoninergic 5-HT7 receptor (agonism/antagonism). It counts as cell-based. The following applies: for activation at 1 µM: agonist effect, percent of control specific agonist response, compounds tested at 1×10^−6M, read-out: 5-HT7-ag [%]; for inhibition at 1 µM: read-out: 5-HT7-antag. [%]. The method, then:
as §1, §2

For experiment [5], the target named is T3, serotoninergic 5-HT2A receptor (Homo sapiens, UniProt P28223). The experiment can be described thus: Binding assay 5-HT2A (h), [3H]ketanserin, HEK-293 cells. Further details: expressed in transfected cells; host or cells: HEK-293 cells. The following applies: read-out: 5-HT2A. In short, it runs like this: (§4)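 Total binding and binding under an excess of unlabelled competitor were both measured, the difference giving specific binding. Counts came from scintillation detection, and compound concentration was 1×10^−6 M.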

For experiment [6], the target named is T4, dopaminergic D2 receptor (Homo sapiens, UniProt P14416). The experiment in a line: Cellular functional assay, dopaminergic D2 receptor (agonism/antagonism). It counts as cell-based. The following applies: HEK293; for activation at 1 µM: agonist effect, percent of control specific agonist response (3 μM dopamine for control), 1×10^−6 M, D2S (h), HEK-293 cells, read-out: D2-ag [%]; for inhibition at 1 µM: read-out: D2-antag. [%]. The method, then: as §1, §2
Target sequence in this assay (P14416 whole entry): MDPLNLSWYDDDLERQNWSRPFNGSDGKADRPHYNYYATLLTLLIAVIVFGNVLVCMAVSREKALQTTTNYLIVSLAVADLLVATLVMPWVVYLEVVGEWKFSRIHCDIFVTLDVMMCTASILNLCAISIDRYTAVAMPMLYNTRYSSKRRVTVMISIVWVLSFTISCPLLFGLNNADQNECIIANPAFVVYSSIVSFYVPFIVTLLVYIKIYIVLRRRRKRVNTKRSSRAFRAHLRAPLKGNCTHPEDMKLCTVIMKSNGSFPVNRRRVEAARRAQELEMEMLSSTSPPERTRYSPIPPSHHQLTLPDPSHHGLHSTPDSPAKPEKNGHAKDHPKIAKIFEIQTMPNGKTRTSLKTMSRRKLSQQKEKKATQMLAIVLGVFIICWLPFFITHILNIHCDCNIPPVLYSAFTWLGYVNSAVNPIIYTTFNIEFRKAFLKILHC

Experiment [7] has as its target T4, dopaminergic D2 receptor. The experiment can be described thus: Binding assay D2S (h), [3H]methyl-spiperone, HEK-293 cells. Also on record: expressed in transfected cells; host or cells: HEK-293 cells. The following applies: read-out: D2 [%]. An outline of the steps: as §4
Target sequence in this assay (P14416 1-414 isoform P14416-2): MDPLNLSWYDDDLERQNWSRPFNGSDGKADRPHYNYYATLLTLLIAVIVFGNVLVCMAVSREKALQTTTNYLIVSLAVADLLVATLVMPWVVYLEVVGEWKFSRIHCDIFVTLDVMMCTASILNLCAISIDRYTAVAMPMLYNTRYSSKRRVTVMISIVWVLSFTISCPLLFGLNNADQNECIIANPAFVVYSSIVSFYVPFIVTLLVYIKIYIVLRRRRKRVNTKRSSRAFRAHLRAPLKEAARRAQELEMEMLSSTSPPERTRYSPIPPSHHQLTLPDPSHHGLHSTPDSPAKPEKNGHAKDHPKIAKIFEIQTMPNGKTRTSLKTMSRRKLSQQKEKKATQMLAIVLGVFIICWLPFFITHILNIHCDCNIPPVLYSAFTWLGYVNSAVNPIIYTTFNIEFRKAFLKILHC
Experiment [8] has as its target histaminergic H1 receptor (Homo sapiens, UniProt P35367). The experiment in a line: Cellular functional assay, histaminergic H1 receptor (agonism/antagonism). It counts as cell-based. The following applies: for activation at 1 µM: agonist effect, percent of control specific agonist response, compounds tested at 1×10^−6M, read-out: H1 -ag [%]; for inhibition at 1 µM: read-out: H1 -antag. [%]. The method, then: as §1, §2

Experiment [9] addresses T5, muscarinic M3 receptor (Homo sapiens, UniProt P20309).
T5 construct: expressed in transfected cells; host or cells: CHO cells
The experiment can be described thus: Binding assay M3 (h), [3H]4-DAMP, CHO cells. The following applies: read-out: M3 [%]. In short, it runs like this:
as §4

Experiment [10] addresses serotoninergic 5-HT6 receptor (Homo sapiens, UniProt P50406). The experiment in a line: Cellular functional assay, serotoninergic 5-HT6 receptor (agonism/antagonism). The following applies: for activation at 1 µM: agonist effect, percent of control specific agonist response, compounds tested at 1×10^−6M, read-out: 5-HT6-ag [%]; for inhibition at 1 µM: read-out: 5-HT6-antag. [%]. The class given is cell-based. The method, then:
as §1, §2

Experiment [11] has as its target T1, adrenergic α2C receptor. The experiment can be described thus: Binding assay α2C (h), [3H]RX 821002, CHO cells. Further details: expressed in transfected cells; host or cells: CHO cells. The following applies: read-out: α2C [%]. In short, it runs like this: as §4
Experiment [12] concerns the target T3, serotoninergic 5-HT2A receptor. The experiment can be described thus: Cellular functional assay, serotoninergic 5-HT2A receptor (agonism/antagonism). It counts as cell-based. The following applies: for activation at 1 µM: read-out: 5-HT2A -ag [%]; for inhibition at 1 µM: read-out: 5-HT2A -antag [%]. In short, it runs like this: as §3
Experiment [13] addresses T6, serotonine transporter (SERT) receptor (Homo sapiens, UniProt P31645).
T6 construct: expressed in transfected cells; host or cells: CHO cells
The experiment in a line: Binding assay SERT (h), [3H]imipramine, CHO cells. The following applies: read-out: SERT [%]. In short, it runs like this:
as §4

T6 sequence (P31645 whole entry): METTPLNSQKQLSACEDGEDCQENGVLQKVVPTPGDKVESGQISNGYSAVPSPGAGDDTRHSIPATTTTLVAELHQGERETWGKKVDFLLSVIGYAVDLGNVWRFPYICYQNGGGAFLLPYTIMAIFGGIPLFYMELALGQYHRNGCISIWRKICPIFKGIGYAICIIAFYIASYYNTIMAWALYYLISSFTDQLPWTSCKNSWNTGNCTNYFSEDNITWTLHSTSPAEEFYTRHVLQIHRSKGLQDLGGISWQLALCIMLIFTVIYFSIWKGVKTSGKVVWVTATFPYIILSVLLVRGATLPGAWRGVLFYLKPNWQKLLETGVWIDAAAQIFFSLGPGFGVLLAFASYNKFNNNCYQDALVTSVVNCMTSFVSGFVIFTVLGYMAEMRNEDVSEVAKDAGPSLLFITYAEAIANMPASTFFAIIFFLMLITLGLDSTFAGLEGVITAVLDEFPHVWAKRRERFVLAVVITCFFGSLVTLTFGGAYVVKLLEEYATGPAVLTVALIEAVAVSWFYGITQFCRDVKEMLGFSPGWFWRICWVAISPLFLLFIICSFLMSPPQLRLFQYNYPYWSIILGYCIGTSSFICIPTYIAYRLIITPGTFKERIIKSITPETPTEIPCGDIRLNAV
Sequence of histaminergic H1 receptor (P35367 whole entry): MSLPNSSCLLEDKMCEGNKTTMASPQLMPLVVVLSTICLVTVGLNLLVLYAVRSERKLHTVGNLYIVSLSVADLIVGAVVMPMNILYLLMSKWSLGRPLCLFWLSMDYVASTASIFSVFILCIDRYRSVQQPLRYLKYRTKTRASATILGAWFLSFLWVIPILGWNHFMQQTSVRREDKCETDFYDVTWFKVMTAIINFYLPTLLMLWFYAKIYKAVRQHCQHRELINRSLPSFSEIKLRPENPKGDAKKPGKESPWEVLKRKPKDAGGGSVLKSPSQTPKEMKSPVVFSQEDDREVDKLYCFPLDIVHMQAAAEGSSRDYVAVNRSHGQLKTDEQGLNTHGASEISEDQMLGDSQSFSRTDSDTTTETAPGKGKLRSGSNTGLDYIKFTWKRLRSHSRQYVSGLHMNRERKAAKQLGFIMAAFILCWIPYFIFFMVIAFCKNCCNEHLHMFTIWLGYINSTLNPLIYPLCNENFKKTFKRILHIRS
T5 sequence (P20309 whole entry): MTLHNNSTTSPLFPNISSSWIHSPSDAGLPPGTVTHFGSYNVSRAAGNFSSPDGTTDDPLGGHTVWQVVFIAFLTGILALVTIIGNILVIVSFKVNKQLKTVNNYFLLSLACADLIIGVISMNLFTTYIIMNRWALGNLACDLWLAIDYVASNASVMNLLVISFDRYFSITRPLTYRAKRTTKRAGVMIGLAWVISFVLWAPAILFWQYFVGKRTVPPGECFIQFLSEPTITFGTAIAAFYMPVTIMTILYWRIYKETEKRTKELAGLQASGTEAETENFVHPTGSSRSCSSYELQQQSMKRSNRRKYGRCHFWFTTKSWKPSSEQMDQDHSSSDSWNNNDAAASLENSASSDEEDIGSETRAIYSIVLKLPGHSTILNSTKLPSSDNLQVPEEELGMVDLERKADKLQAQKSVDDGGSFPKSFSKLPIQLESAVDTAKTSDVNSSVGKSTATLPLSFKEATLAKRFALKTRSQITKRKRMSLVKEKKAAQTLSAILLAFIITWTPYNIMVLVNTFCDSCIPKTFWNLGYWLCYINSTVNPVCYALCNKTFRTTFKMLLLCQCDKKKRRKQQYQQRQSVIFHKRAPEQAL
T3 sequence (P28223 whole entry): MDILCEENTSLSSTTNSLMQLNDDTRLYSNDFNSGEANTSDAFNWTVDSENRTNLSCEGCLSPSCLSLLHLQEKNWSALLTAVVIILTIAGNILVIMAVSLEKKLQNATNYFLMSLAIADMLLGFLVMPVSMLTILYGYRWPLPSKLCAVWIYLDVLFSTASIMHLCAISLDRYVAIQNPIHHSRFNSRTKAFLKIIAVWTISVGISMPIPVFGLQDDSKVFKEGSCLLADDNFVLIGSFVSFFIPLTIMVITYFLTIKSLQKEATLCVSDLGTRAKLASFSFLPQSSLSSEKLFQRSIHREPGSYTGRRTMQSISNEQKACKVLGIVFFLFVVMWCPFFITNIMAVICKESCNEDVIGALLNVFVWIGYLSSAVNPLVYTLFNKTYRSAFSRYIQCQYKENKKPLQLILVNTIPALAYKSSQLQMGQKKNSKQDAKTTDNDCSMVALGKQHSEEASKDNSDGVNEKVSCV
Sequence of dopaminergic D3 receptor (P35462 whole entry): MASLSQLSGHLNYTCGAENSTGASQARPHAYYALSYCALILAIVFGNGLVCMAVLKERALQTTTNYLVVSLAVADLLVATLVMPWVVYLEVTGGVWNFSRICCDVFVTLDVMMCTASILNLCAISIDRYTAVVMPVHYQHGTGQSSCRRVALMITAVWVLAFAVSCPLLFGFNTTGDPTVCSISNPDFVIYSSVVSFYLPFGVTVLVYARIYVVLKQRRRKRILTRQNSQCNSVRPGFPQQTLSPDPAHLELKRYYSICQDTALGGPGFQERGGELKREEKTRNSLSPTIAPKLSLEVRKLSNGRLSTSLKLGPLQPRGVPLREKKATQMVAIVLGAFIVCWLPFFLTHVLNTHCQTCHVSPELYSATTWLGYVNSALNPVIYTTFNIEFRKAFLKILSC
Sequence of serotoninergic 5-HT6 receptor (P50406 whole entry): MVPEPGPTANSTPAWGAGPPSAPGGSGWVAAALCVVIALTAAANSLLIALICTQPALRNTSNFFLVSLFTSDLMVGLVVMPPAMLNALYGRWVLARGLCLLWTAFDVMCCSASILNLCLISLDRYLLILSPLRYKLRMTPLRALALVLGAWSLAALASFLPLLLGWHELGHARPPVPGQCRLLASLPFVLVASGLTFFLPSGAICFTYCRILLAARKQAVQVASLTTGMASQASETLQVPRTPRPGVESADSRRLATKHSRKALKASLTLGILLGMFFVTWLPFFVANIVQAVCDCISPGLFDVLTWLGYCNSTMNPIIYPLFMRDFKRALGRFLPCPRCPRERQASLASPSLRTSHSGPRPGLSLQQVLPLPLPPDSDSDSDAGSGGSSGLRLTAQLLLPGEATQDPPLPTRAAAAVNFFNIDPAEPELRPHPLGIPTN
Sequence of serotoninergic 5-HT7 receptor (P34969 whole entry): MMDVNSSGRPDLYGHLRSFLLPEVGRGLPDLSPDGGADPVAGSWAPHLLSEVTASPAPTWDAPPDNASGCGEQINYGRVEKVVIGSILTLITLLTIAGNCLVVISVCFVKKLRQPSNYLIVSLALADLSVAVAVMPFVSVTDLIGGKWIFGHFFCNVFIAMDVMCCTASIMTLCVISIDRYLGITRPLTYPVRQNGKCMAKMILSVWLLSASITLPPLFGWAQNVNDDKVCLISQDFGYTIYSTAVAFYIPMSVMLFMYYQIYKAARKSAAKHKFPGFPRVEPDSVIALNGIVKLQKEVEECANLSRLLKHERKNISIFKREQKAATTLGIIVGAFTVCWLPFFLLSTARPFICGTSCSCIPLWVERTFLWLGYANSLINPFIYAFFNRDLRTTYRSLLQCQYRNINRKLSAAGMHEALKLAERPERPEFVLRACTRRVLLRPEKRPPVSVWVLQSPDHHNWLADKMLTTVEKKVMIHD

For `Cc1c(S(=O)(=O)NCCCCN2CCC(c3noc4cc(F)ccc34)CC2)sc2ccc(F)cc12` [Compound 101, 5-Fluoro-N-[4-[4-(6-fluoro-1,2-benzoxazol-3-yl)piperidin-1-yl]butyl]-3-methylbenzothiophene-2-sulphonamide], the activation at 1 µM is 1% in [1]; 0% in experiment [2]; -18% in experiment [3]; -2% in [4]; 6% in experiment [6]; 33% in experiment [8]. The activation at 1 µM in [10] was -2%; in experiment [12] it was -1%. For the same compound, the inhibition at 1 µM amounted to 46% in experiment [1]; 100% in [2]; 112% in [3]; 101% in experiment [4]; 100% in experiment [5]; 85% in experiment [6]. Further, the inhibition at 1 µM was 99% in experiment [7]; 94% in experiment [8]; 14% in experiment [9]; 103% in experiment [10]; 106% in experiment [11]; 100% in experiment [12]. The inhibition at 1 µM in experiment [13] is 47%.
Turning to `O=S(=O)(NCCCCN1CCC(c2noc3cc(F)ccc23)CC1)c1ccc(Br)cc1` [Compound 298, 4-Bromo-N-[4-[4-(6-fluoro-1,2-benzoxazol-3-yl)piperidin-1-yl]butyl]benzenesulphonamide], the activation at 1 µM in experiment [1] is -4%; in [2] it was 1%; in experiment [3], -8%; in experiment [4], -3%; in experiment [6] it was 12%; in [8], 30%. Also, the activation at 1 µM was 0% in experiment [10] and -1% in [12]. Moreover, the inhibition at 1 µM in experiment [1] was determined as 39%; in experiment [2] it was 100%; in experiment [3], 99%; in experiment [4], 98%; in experiment [5] it was 100%; in [6], 84%. Further, the inhibition at 1 µM is 99% in [7]; 90% in experiment [8]; 19% in [9]; 89% in experiment [10]; 98% in [11]; 99% in [12]. Moreover, the inhibition at 1 µM in experiment [13] amounted to 35%.
Regarding `Cc1c(S(=O)(=O)NCCCCN2CCN(c3noc4ccccc34)CC2)sc2ccc(F)cc12` [Compound 81, N-[4-[4-(1,2-Benzoxazol-3-yl)piperazin-1-yl]butyl]-5-fluoro-3-methylbenzothiophene-2-sulphonamide], the activation at 1 µM in experiment [1] was 9%; in [2], 1%; in experiment [3], -10%; in experiment [4] it was -2%; in experiment [6], 4%; in experiment [8] it was 1%. Moreover, the activation at 1 µM was 1% in experiment [10] and -1% in experiment [12]. Further, the inhibition at 1 µM in [1] was determined as 20%; in experiment [2], 100%; in experiment [3], 76%; in [4], 98%; in [5] it was 101%; in [6], 73%. Besides, the inhibition at 1 µM in experiment [7] was 90%; in experiment [8], 38%; in [9], 6%; in experiment [10], 88%; in [11], 106%; in [12], 95%. In addition, the inhibition at 1 µM in [13] amounted to 28%.
With `O=S(=O)(NCCCN1CCC(c2noc3cc(F)ccc23)CC1)c1ccc(F)c(Cl)c1` [Compound 331, 3-Chloro-4-fluoro-N-[3-[4-(6-fluoro-1,2-benzoxazol-3-yl)piperidin-1-yl]propyl]benzenesulphonamide], the activation at 1 µM is -14% in experiment [1]; 1% in experiment [2]; -15% in experiment [3]; -2% in experiment [4]; 4% in experiment [6]; 2% in [8]. Further, the activation at 1 µM in experiment [10] and in [12] was -1% each time. Also, the inhibition at 1 µM amounted to 7% in experiment [1]; 100% in experiment [2]; 114% in [3]; 102% in [4]; 102% in experiment [5]; 87% in experiment [6]. The inhibition at 1 µM was found to be 100% in experiment [7]; 85% in experiment [8]; 10% in experiment [9]; 98% in experiment [10]; 104% in experiment [11]; 98% in experiment [12]. Besides, the inhibition at 1 µM in experiment [13] was found to be 31%.
`O=S(=O)(NCCCN1CCC(c2noc3cc(F)ccc23)CC1)c1ccc2cc(Cl)ccc2c1` [Compound 98, 6-Chloro-N-[3-[4-(6-fluoro-1,2-benzoxazol-3-yl)piperidin-1-yl]propyl]naphthalene-2-sulphonamide]: the activation at 1 µM in experiment [1] is -1%; in experiment [2], 0%; in [3], -10%; in experiment [4], -2%; in [6], 4%; in experiment [8], -1%. For the same compound, the activation at 1 µM in experiment [10] and in experiment [12] was -2% each time. Also, the inhibition at 1 µM in experiment [1] amounted to 16%; in experiment [2] it was 99%; in [3], 109%; in experiment [4], 92%; in experiment [5], 102%; in experiment [6] it was 80%. The inhibition at 1 µM came out at 101% in experiment [7]; 78% in experiment [8]; 16% in experiment [9]; 79% in [10]; 108% in experiment [11]; 97% in [12]. Further, the inhibition at 1 µM in experiment [13] is 54%.
